# Assay results: US10759793B2, “2-(pyrazolopyridin-3-yl)pyrimidine derivatives as JAK inhibitors” (ALMIRALL, S.A., priority 2015, dated 2020)
# Assays:
# Format in all cases: biochemical
# JAK1 = JAK1 (Homo sapiens (Human), UniProt P23458); assay: In vitro JAK kinase assay (TR-FRET), JAK1; conditions: catalytic domain aa 850-1154, GST-fusion; ATP 3 μM; peptide 60 nM; 30 minutes at room temperature
# Procedure, shortened: (§1)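 Each human JAK enzyme assayed on biotinylated poly(GT) peptide substrate, reaction 30 min at room temperature. Phosphorylation detected by TR-FRET after a 3 h detection incubation.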
# JAK3 = JAK3 (Homo sapiens (Human), UniProt P52333); assay: In vitro JAK kinase assay (TR-FRET), JAK3; conditions: catalytic domain aa 795-1124, GST-fusion; ATP 0.6 μM; peptide 140 nM; 30 minutes at room temperature
# Procedure, shortened: as §1
# JAK2 = JAK2 (Homo sapiens (Human), UniProt O60674); assay: In vitro JAK kinase assay (TR-FRET), JAK2; conditions: catalytic domain aa 826-1132, GST-fusion; ATP 0.2 μM; peptide 20 nM; 30 minutes at room temperature
# Procedure, shortened: as §1
# JAK2, sequence (O60674 826-1132): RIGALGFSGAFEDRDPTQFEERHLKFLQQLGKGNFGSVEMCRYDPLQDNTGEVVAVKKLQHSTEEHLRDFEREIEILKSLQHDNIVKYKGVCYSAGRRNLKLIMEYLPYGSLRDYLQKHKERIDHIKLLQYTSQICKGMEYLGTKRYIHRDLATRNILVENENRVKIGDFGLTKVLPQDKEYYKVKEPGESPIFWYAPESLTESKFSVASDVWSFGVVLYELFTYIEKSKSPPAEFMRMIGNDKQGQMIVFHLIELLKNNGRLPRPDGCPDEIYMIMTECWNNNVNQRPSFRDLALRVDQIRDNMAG
# JAK3, sequence (P52333 795-1124): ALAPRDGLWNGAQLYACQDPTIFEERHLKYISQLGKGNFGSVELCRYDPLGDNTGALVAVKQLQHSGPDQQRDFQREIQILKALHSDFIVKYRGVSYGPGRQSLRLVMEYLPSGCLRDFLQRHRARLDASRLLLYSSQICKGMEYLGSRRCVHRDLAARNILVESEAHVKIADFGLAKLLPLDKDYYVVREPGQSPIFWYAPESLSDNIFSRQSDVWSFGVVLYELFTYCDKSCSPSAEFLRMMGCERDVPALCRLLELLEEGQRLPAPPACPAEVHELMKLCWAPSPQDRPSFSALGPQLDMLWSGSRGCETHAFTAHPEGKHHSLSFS
# JAK1, sequence (P23458 850-1154): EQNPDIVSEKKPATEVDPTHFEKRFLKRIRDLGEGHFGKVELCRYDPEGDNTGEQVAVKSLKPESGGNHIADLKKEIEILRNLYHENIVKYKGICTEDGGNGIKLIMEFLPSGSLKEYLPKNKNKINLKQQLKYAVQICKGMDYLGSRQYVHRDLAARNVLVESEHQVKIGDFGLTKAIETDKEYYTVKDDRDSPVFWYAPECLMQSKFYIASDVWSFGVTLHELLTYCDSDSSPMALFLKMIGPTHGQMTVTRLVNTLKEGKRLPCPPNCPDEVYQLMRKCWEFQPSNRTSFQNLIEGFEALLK
Compound,IC50 (JAK1),IC50 (JAK3),IC50 (JAK2)
"C[C@H](Nc1nc(-c2cnn3ccccc23)nc(OCCO)c1F)c1ncc(F)cn1 [Example 12, 2-[(5-Fluoro-6-{[(1S)-1-(5-fluoropyrimidin-2-yl)ethyl]amino}-2-pyrazolo[1,5-a]pyridin-3-ylpyrimidin-4-yl)oxy]ethanol]",4 nM,4 nM,0.5 nM
"Cc1ccc(-c2cc(N[C@@H]3CCCN(C(=O)CC#N)C3)nc(-c3cnn4ccccc34)n2)cn1 [Example 100, 3-((3R)-3-{[6-(6-Methylpyridin-3-yl)-2-pyrazolo[1,5-a]pyridin-3-ylpyrimidin-4-yl]amino}piperidin-1-yl)-3-oxopropanenitrile]",0.5 nM,2 nM,2 nM
"C[C@H](Nc1nc(-c2cnn3ccccc23)nc(OC[C@@H](O)CO)c1F)c1ncc(F)cn1 [Example 13, (2S)-3-[(5-fluoro-6-{[(1S)-1-(5-fluoropyrimidin-2-yl)ethyl]amino}-2-pyrazolo[1,5-a]pyridin-3-ylpyrimidin-4-yl)oxy]propane-1,2-diol]",4 nM,4 nM,1 nM
"Cc1cc(-c2cc(N[C@@H]3CCCN(C(=O)CC#N)C3)nc(-c3cnn4ccccc34)n2)cc(C)n1 [Example 102, 3-((3R)-3-{[6-(2,6-Dimethylpyridin-4-yl)-2-pyrazolo[1,5-a]pyridin-3-ylpyrimidin-4-yl]amino}piperidin-1-yl)-3-oxopropanenitrile]",1 nM,5 nM,2 nM
"COc1nc(-c2cnn3ccccc23)nc(O[C@@H]2CCCN(C(=O)CC#N)C2)c1F [Example 64, 3-{(3R)-3-[(5-Fluoro-6-methoxy-2-pyrazolo[1,5-a]pyridin-3-ylpyrimidin-4-yl)oxy]piperidin-1-yl}-3-oxopropanenitrile]",28 nM,4 nM,3 nM
"N#CC[C@H]1CC[C@H](Nc2nc(-c3cnn4ccccc34)nc(OC[C@H](O)CO)c2F)CC1 [Example 7, {Trans-4-[(6-{[(2R)-2,3-dihydroxypropyl]oxy}-5-fluoro-2-pyrazolo[1,5-a]pyridin-3-ylpyrimidin-4-yl)amino]cyclohexyl}acetonitrile]",10 nM,2 nM,0.5 nM
"N#CCC(=O)N1CCC[C@@H](Oc2nc(-c3cnn4ccccc34)nc(-c3ccnc(CO)c3)c2F)C1 [Example 73, 3-[(3R)-3-({5-Fluoro-6-[2-(hydroxymethyl)pyridin-4-yl]-2-pyrazolo[1,5-a]pyridin-3-ylpyrimidin-4-yl}oxy)piperidin-1-yl]-3-oxopropanenitrile]",13 nM,27 nM,2 nM
"COc1ccc(-c2nc(-c3cnn4ccccc34)nc(N[C@@H]3CCCN(C(=O)CC#N)C3)c2F)cn1 [Example 19, 3-((3R)-3-{[5-fluoro-6-(6-methoxypyridin-3-yl)-2-pyrazolo[1,5-a]pyridin-3-ylpyrimidin-4-yl]amino}piperidin-1-yl)-3-oxopropanenitrile]",2 nM,2 nM,0.3 nM
"COCCOc1cc(N[C@@H]2CCCN(C(=O)CC#N)C2)nc(-c2cnn3ccccc23)n1 [Example 97, 3-((3R)-3-{[6-(2-Methoxyethoxy)-2-pyrazolo[1,5-a]pyridin-3-ylpyrimidin-4-yl]amino}piperidin-1-yl)-3-oxopropanenitrile]",2 nM,1 nM,1 nM
"C[C@H](Nc1nc(-c2cnn3ccccc23)nc(N2CCC(N)CC2)c1F)c1ccc(F)cn1 [Example 11, 6-(4-Aminopiperidin-1-yl)-5-fluoro-N-[(1S)-1-(5-fluoropyridin-2-yl)ethyl]-2-pyrazolo[1,5-a]pyridin-3-ylpyrimidin-4-amine]",40 nM,3 nM,1 nM
"N#Cc1cnc(N2CCC[C@@H](Nc3cc(OCCO)nc(-c4cnn5ccccc45)n3)C2)cn1 [Example 104, 5-((3R)-3-{[6-(2-Hydroxyethoxy)-2-pyrazolo[1,5-a]pyridin-3-ylpyrimidin-4-yl]amino}piperidin-1-yl)pyrazine-2-carbonitrile]",4 nM,1 nM,3 nM
"N#Cc1cnc(N2CCC[C@@H](Nc3nc(-c4cnn5ccccc45)nc(OCCO)c3F)C2)nc1 [Example 57, 2-((3R)-3-{[5-fluoro-6-(2-hydroxyethoxy)-2-pyrazolo[1,5-a]pyridin-3-ylpyrimidin-4-yl]amino}piperidin-1-yl)pyrimidine-5-carbonitrile]",19 nM,2 nM,2 nM
"N#CCC(=O)N1CCC[C@@H](Nc2cc(-c3cncc(O)c3)nc(-c3cnn4ccccc34)n2)C1 [Example 106, 3-((3R)-3-{[6-(5-Hydroxypyridin-3-yl)-2-pyrazolo[1,5-a]pyridin-3-ylpyrimidin-4-yl]amino}piperidin-1-yl)-3-oxopropanenitrile]",1 nM,1 nM,1 nM

# Results, then the molecule that gave them:
IC50 (JAK1),IC50 (JAK3),IC50 (JAK2),Compound
13 nM,1 nM,1 nM,"COc1nc(-c2cnn3ccccc23)nc(N[C@@H]2CCCN(C(=O)CO)C2)c1F [Example 42, 2-{(3R)-3-[(5-Fluoro-6-methoxy-2-pyrazolo[1,5-a]pyridin-3-ylpyrimidin-4-yl)amino]piperidin-1-yl}-2-oxoethanol]"
1 nM,1 nM,3 nM,"Cc1cc(-c2nc(-c3cnn4ccccc34)nc(N[C@@H]3CCCN(C(=O)CO)C3)c2F)cc(C)n1 [Example 86, 2-((3R)-3-{[6-(2,6-Dimethylpyridin-4-yl)-5-fluoro-2-pyrazolo[1,5-a]pyridin-3-ylpyrimidin-4-yl]amino}piperidin-1-yl)-2-oxoethanol]"
110 nM,16 nM,7 nM,"COC[C@@H](C)Oc1nc(-c2cnn3ccccc23)nc(N[C@@H]2CCCN(C(=O)CO)C2)c1F [Example 60, 2-[(3R)-3-({5-Fluoro-6-[(1R)-2-methoxy-1-methylethoxy]-2-pyrazolo[1,5-a]pyridin-3-ylpyrimidin-4-yl}amino)piperidin-1-yl]-2-oxoethanol]"
26 nM,30 nM,4 nM,"Cc1c(N[C@@H]2CCCN(C(=O)CO)C2)nc(-c2cnn3ccccc23)nc1N1CCOCC1 [Example 26, 2-{(3R)-3-[(5-Methyl-6-morpholin-4-yl-2-pyrazolo[1,5-a]pyridin-3-ylpyrimidin-4-yl)amino]piperidin-1-yl}-2-oxoethanol]"
4 nM,3 nM,1 nM,"CCOc1nc(-c2cnn3ccccc23)nc(N[C@@H]2CCCN(C(=O)CO)C2)c1F [Example 45, 2-{(3R)-3-[(6-Ethoxy-5-fluoro-2-pyrazolo[1,5-a]pyridin-3-ylpyrimidin-4-yl)amino]piperidin-1-yl}-2-oxoethanol]"
2 nM,4 nM,0.6 nM,"O=C(CO)N1CCC[C@@H](Nc2nc(-c3cnn4ccccc34)nc(-c3cn[nH]c3)c2F)C1 [Example 32, 2-((3R)-3-{[5-Fluoro-2-pyrazolo[1,5-a]pyridin-3-yl-6-(1H-pyrazol-4-yl)pyrimidin-4-yl]amino}piperidin-1-yl)-2-oxoethanol]"
14 nM,4 nM,1 nM,"C[C@H](O)COc1nc(-c2cnn3ccccc23)nc(O[C@@H]2CCCN(C(=O)CO)C2)c1F [Example 90, (2S)-1-[(5-Fluoro-6-{[(3R)-1-glycoloylpiperidin-3-yl]oxy}-2-pyrazolo[1,5-a]pyridin-3-ylpyrimidin-4-yl)oxy]propan-2-ol]"
14 nM,4 nM,1 nM,"O=C(CO)N1CCC[C@@H](Nc2nc(-c3cnn4ccccc34)nc(-c3cncc(CO)c3)c2F)C1 [Example 88, 2-[(3R)-3-({5-Fluoro-6-[5-(hydroxymethyl)pyridin-3-yl]-2-pyrazolo[1,5-a]pyridin-3-ylpyrimidin-4-yl}amino)piperidin-1-yl]-2-oxoethanol]"
2 nM,7 nM,9 nM,"Cc1ccc(-c2cc(N[C@@H]3CCCN(C(=O)CO)C3)nc(-c3cnn4ccccc34)n2)cn1 [Example 99, 2-((3R)-3-{[6-(6-Methylpyridin-3-yl)-2-pyrazolo[1,5-a]pyridin-3-ylpyrimidin-4-yl]amino}piperidin-1-yl)-2-oxoethanol]"
4 nM,1 nM,0.7 nM,"O=C(CO)N1CCC[C@@H](Nc2nc(-c3cnn4ccccc34)nc(O)c2F)C1 [Example 43, 5-Fluoro-6-{[(3R)-1-glycoloylpiperidin-3-yl]amino}-2-pyrazolo[1,5-a]pyridin-3-ylpyrimidin-4-ol]"
38 nM,9 nM,2 nM,"O=C(CO)N1CCC[C@@H](Oc2nc(-c3cnn4ccccc34)nc(OCCO)c2F)C1 [Example 65, 2-((3R)-3-{[5-Fluoro-6-(2-hydroxyethoxy)-2-pyrazolo[1,5-a]pyridin-3-ylpyrimidin-4-yl]oxy}piperidin-1-yl)-2-oxoethanol]"
2 nM,7 nM,1 nM,"O=C(CO)N1CCC[C@@H](Nc2nc(-c3cnn4ccccc34)nc(-c3ccnc(CO)c3)c2F)C1 [Example 37, 2-[(3R)-3-({5-Fluoro-6-[2-(hydroxymethyl)pyridin-4-yl]-2-pyrazolo[1,5-a]pyridin-3-ylpyrimidin-4-yl}amino)piperidin-1-yl]-2-oxoethanol]"
7 nM,7 nM,1 nM,"COc1cc(N[C@@H]2CCCN(C(=O)CO)C2)nc(-c2cnn3ccccc23)n1 [Example 94, 2-{(3R)-3-[(6-Methoxy-2-pyrazolo[1,5-a]pyridin-3-ylpyrimidin-4-yl)amino]piperidin-1-yl}-2-oxoethanol]"
